Experimental data as given in patent publication US20220213030A1, “AMINOGUANIDINE HYDRAZONES AS RETROMER STABILIZERS USEFUL FOR TREATING NEUROLOGICAL DISEASES” (OSPEDALE SAN RAFFAELE SRL, priority 2019, published 2022).

Legend:
CMC = CMC (Homo sapiens, UniProt Q96QK1+Q9UBQ0); conditions: in vitro; cited from earlier work
VPS26 = conditions: neuronal cultures; cited from earlier work
neuronal cultures = conditions: cited from earlier work
Aβ40 = conditions: wild type and APP-mutated hippocampal neurons; cited from earlier work
Aβ42 = conditions: wild type and APP-mutated hippocampal neurons; cited from earlier work
VPS35 [1] = target: VPS35 (Homo sapiens, UniProt Q96QK1+Q9UBQ0); parameters: host or cells: neuronal cultures; conditions: neuronal cultures; cited from earlier work
VPS35 [2] = target: T1, VPS35 (Mus musculus, UniProt Q9EQH3+Q9QZ88); experiment: VPS35 levels in Neuro2a cells by Western blot (screening of amino guanidine hydrazones); type: cell-based; parameters: endogenous in cells; host or cells: Neuro2a; conditions: 48 hours, compounds at 10 μM
Method: To functionally screen the majority of synthetized amino guanidine hydrazones of the invention and determine their effects on the retromer complex, we incubated Neuro2a cells with each synthetized molecule at the concentration of 10 μM.
The test was executed in triplicate for each tested compound of the invention, cells lysates were established after 48 hours' incubation, and levels of VPS35 were normalized on the housekeeping gene β-Actin by Western blot. We observed a preliminary SAR among the compounds.
Fold changes are calculated over normalized VPS35 levels measured in vehicle-treated cells.
Neuro2a cells were seeded on 12 wells multiwell at the concentration of 100 000 cells/well. Cells were incubated with each compound, including the standard R55, at 10 μM for 48 hours. Cells were then washed in PBS 1× and lysed in a buffer containing Tris-HCl 10 mM pH8, EDTA 1 mM pH8, NaCl 100 mM, NP40 1%, with protease inhibitor cocktail (Sigma) 1×. Using a cell scraper total lysates were collected from each well, quantified with BCA (BCA protein assay, Thermofisher). Five μg were resolved on precast 10% acrylamide gel (Biorad). Proteins were transferred to a PVDF membrane (Millipore) and western blot were performed using the following antibodies: goat αVPS35 (1:1000), mouse α-βActin (1:10000). Detection of proteins was obtained by a chemiluminescence detection kit (PerkinElmer).

VPS35 [3] = target: T1, VPS35; experiment: VPS35 levels in spinal cord extracts of C57BL6J mice by western blot; type: in vivo; parameters: Lumbar spinal cords were dissected from saline perfused mice and rapidly homogenized; from tissue; host or cells: lumbar spinal cord of mice; conditions: 10 mg/kg daily intraperitoneal for 7 days
Method: We next asked whether the compound 2a can cross the blood brain barrier (BBB) of the brain. We run a pharmacokinetic assay on C57BL6J mice that received daily intraperitoneal injections of compound 2a (10 mg/Kg/day). Mice were sacrificed after 1, 7, 15 and 30 days saline perfused to avoid the CNS contamination of compounds contained in blood circulation and brains used for the determination of compound 2a levels by mass spectrometry. […] We next investigated in vivo if the retromer stabilization occurs in response to Compound 2a treatment. We intraperitoneally injected R55 and Compound 2a in adult C57BL6J mice as above described. After one week, mice were sacrificed, proteins extracts were assayed by western blot.
Lumbar spinal cords were dissected from saline perfused mice and rapidly homogenized in the following lysis buffer: Tris-HCl 10 mM pH 8, EDTA pH 8 1 mM, NaCl 100 mM, NP40 1% and protease inhibitor cocktail (Sigma). Protein extracts were obtained using a tight-fitting glass Potter tissue grinder (1 ml; Wheaton) and then sonicated at a frequency of 20 kHz (10 times-1s). […] Protein concentrations were measured by BCA protein assay kit (Thermofisher) according to the manufacturer's recommendations. […] Quantifications were done using the Image Lab 6.0.1 software (Bio-Rad).

- VPS35 levels in SC extracts (ratio versus vehicle-treated mice) (VPS35 [3]): did not increase VPS35 levels
SMILES: N=C(N)SCc1ccc(CSC(=N)N)s1 [Compound R55]
- increase in denaturation temperature (CMC): ≈ 10 °C
- VPS26 levels (VPS26): ≈ 150%
- not toxic up to (concentration) (neuronal cultures): up to 50 μM
- reduction of Aβ40 levels (Aβ40): up to 44%
- reduction of Aβ42 levels (Aβ42): up to 39%
- VPS35 levels (VPS35 [1]): ≈ 180%
- VPS35 levels (in words) (VPS35 [2]): efficiently and dose-dependently increased VPS35 levels
